The text below walks through data of patent publication US20250206779A1, “ANGIOTENSIN-(1-9) ANALOGUE BASED ON D AMINO ACIDS, PHARMACEUTICAL COMPOSITIONS AND USES THEREOF” (UNIVERSIDAD DE CHILE, priority 2021, published 2025).

Holding throughout (assay type): in vivo, rat
In assay [1] the test system is spontaneously hypertensive rats (SHR). Description: Cardiac inflammation by monocyte infiltration in SHR, ED-1 immunohistochemistry. The note with it: SHR, 1,200 ng/kg/min, 14 days. The method, then:
(§1) Experimental animal model. All procedures were performed in accordance with the Guide for the Care and Use of Laboratory Animals published by the U.S. National Institutes of Health (NIH Publication 85 23, 1985) and approved by our Institutional Bioethics Committee. The animals were housed under the continuous professional monitoring of the Medical Veterinary staff in the animal facility of the Pontificia Universidad Católica de Chile, under the following conditions: 12-h light-dark cycle; 21° C. ambient temperature; 50% humidity; adequate ventilation; noise-free environment; and food and water ad libitum. Male spontaneously hypertensive rats (SHR, age 12 weeks) and normotensive Wistar Kyoto rats (WKY, 12 weeks age) were used. […] Systolic blood pressure (SBP), diastolic blood pressure (DBP) and body weight (BW) were measured at the end of the treatment period and the animals were then sacrificed.
Evaluation of cardiac inflammation by monocyte infiltration. Monocyte infiltration was assessed as a marker of cardiac inflammation. Monocytes were detected by immunohistochemistry using ED-1. […] In hypertense SHR increased ED-1 positive cells was detected in the hearts, indicating the presence of monocyte infiltration, a marker of cardiac inflammation.

The test system is the same in assay [2]. The assay can be described thus: Fibroblast proliferation in cardiac tissue of SHR, Ki67 immunohistochemistry. The note with it: SHR, 1,200 ng/kg/min, 14 days. The method, then:
as §1, with “libitum.” for “libitum. Male spontaneously hypertensive rats (SHR, age 12 weeks) and normotensive Wistar Kyoto rats (WKY, 12 weeks age) were used.”
Immunohistochemistry for Ki67. Proliferation of fibroblast, another marker of fibrosis, was assessed by measuring the presence of Ki-67 positive nuclei. […] Two blinder researchers counted manually positive cells in 10 high-power fields (×40). […] The percentage of positive Ki67 cells was calculated. As observed with the above cardiac fibrosis marker, collagen content assessed by picrosirius red staining, in hypertensive SHR, an increase in fibroblast with Ki-67 positive nuclei were found, confirming the occurrence of cardiac fibrosis.

Assay [3] has the same test system. The assay can be described thus: β-MHC protein level in left ventricle of SHR (cardiac hypertrophy). The note with it: SHR, 1,200 ng/kg/min, 14 days, left ventricle western blot. The method, then:
as §1
Measurement of β-MHC protein level to assess cardiac hypertrophy. β-MHC protein levels were determined by Western blotting. […] Digital images obtained from the photographic films were analyzed by densitometry using Image J software (NIH, USA). […]

Assay [4] shares this test system. Description: Cardiac hypertrophy by morphometry analysis in SHR. The note with it: SHR, 1,200 ng/kg/min, 14 days, left ventricle. As for the experimental part:
as §1
Measurement of cardiac hypertrophy by morphometry analysis. […] Cardiomyocyte size (area and perimeter) was determined as described by Ocaranza et al. (J. Hypertens. 2010; 28:1054-1064). […]

Structures are written as SMILES. Where a SMILES comes first, the peptide text is derived from it. [ ]: non-standard residue; d: D form.

In the case of `CC[C@@H](C)[C@@H](NC(=O)[C@@H](Cc1c[nH]cn1)NC(=O)[C@H]1CCCN1C(=O)[C@@H](Cc1ccccc1)NC(=O)[C@H](N)Cc1c[nH]cn1)C(=O)N[C@H](Cc1ccc(O)cc1)C(=O)N[C@@H](C(=O)N[C@H](CCCNC(=N)N)C(=O)N[C@H](CC(=O)O)C(=O)O)C(C)C` [retro-inverse angiotensin-(1-9), NH2-^DH^DF^DP^DH^DI^DY^DV^DR^DD-COOH] (H-[dH][dF][dP][dH][dI][dY][dV][dR][dD]-OH), the “accumulation of ED-1 positive cells in cardiac tissue” value in assay [1] is “completely revert”. In assay [2], the “increase of fibroblast with Ki-67 positive nuclei induced by hypertension” value is recorded as “reversed the increase”. The “increase in β-MHC induced by hypertension” value in assay [3] is “reversed the increase”. In assay [4], the “increase of area of cardiomyocytes induced by hypertension” value is on record as “reversed the increase” and the “increase of perimeter of cardiomyocytes induced by hypertension” value was “reversed the increase”.
